Molecular target: T1, E. coli nitroreductase NfsB (also called NfnB) (Escherichia coli, UniProt P38489)
T1 sequence (P38489 2-217): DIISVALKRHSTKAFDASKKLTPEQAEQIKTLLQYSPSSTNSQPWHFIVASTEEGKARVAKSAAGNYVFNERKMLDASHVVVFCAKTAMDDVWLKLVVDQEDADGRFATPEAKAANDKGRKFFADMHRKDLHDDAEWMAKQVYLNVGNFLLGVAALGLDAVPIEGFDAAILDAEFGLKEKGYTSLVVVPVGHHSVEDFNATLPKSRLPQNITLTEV
Experiment: 1D 1H NMR titration, ligand proton shifts fitted to hyperbola
Type: binding
Details: read-out: Apparent Kd
From the text: 1D 1H NMR titration, ligand proton shifts fitted to hyperbola on E. coli nitroreductase NfsB (also called NfnB)

**Q.** `O=C(O)c1cccnc1` [nicotinate] was tested. Which Kd did it give?
**A.** Its Kd is 1.9 ± 0.3 mM.

— publication PMC7974150, “Backbone assignment of E. coli NfsB and the effects of addition of the cofactor analogue nicotinic acid” (Biomolecular Nmr Assignments, 2021)
